We go through 20 molecules from patent publication US9980943B2, “Methods of treating muscular dystrophy” (BOARD OF REGENTS OF THE NEVADA SYSTEM OF HIGHER EDUCATION, …, priority 2013, dated 2018).

The experiment has as its system α7 integrin (LacZ reporter in α7LacZ+/− myoblasts). Description: qHTS of the LOPAC library and MLSMR (online screen, α7LacZ+/− myoblasts). The following applies: for activation at 0.307 µM / activation at 1.53 µM / activation at 7.66 µM / activation at 38.3 µM / Emax / EC50: Mus musculus, Myoblast; for activation at 0.307 µM: read-out: Activity at 0.307 uM [%] **; for activation at 1.53 µM: read-out: Activity at 1.530 uM [%] **; for activation at 7.66 µM: read-out: Activity at 7.660 uM [%] **; for activation at 38.3 µM: read-out: Activity at 38.30uM [%] **; for EC50: read-out: Fit LogAC50 (converted). In general terms: In qHTS, concentration-response curves come from the screen itself.

Setting [1] is: 48 h, read-out: Fit Infinite Activity [%].

Read-outs that look alike come from different tables or passages of the source.

With `CN(Cc1c(C(=O)N/N=C/c2cccc(F)c2)nnn1-c1nonc1N)c1ccccc1` [Compound 97], the EC50 was 5.62 µM. Also, for the setting “48 h”, the activation at 0.307 µM is 1.91%, the activation at 1.53 µM stood at 1.37%, the activation at 7.66 µM came to 59.1% and the activation at 38.3 µM came out at 79.3%. Further, the Emax under setting [1] is 79.8%. Besides, the Emax (read-out: Max Response [%]) was determined as 79.3%.

For the molecule `CC(=O)c1cccc(NC(=O)C(=O)Nc2cccc3ccccc23)c1` [Compound 197], where the note is “48 h”, the activation at 0.307 µM stood at 5.25%, the activation at 1.53 µM turned out to be 15.7%, the activation at 7.66 µM turned out to be 40.8% and the activation at 38.3 µM is 66.9%. Further, the Emax under setting [1] was 84.7%. The Emax (read-out: Max Response [%]) is 66.9%.

For `Cc1ccc(NC(=O)NCc2nc3ccccc3n2C)cc1` [Compound 77], the EC50 was 4.47 µM. For the same molecule, under “48 h”, the activation at 0.307 µM is -33.5%, the activation at 1.53 µM was -19.7%, the activation at 7.66 µM came out at 54.7% and the activation at 38.3 µM was found to be 85.1%. In addition, the Emax under setting [1] came out at 87.1%. Moreover, the Emax (read-out: Max Response [%]) is 85.1%.

For the molecule `CN(C)/C(S)=N/c1cccc(C(F)(F)F)c1` [Compound 172], the EC50 is 10 µM. Moreover, for the setting “48 h”, the activation at 0.307 µM was found to be 8.95%, the activation at 1.53 µM stood at 7.22%, the activation at 7.66 µM was 31.2% and the activation at 38.3 µM is 71.2%. The Emax under setting [1] worked out at 73.8%. In addition, the Emax (read-out: Max Response [%]) was determined as 71.2%.

As to `CS(=O)(=O)c1ccc(Cl)c(NC(=O)CSc2nncn2-c2ccccc2)c1` [Compound 55], the EC50 is 12.6 µM. For the same molecule, where the note is “48 h”, the activation at 0.307 µM is -24.6%, the activation at 1.53 µM was -12.1%, the activation at 7.66 µM turned out to be 3.46% and the activation at 38.3 µM was 252%. The Emax under setting [1] is 253%. Where the note is “read-out: Max Response [%]”, the Emax is 252%.

With `Cc1ccc(-c2csc(Nc3ccc(C(=O)O)cc3)[n+]2Cc2ccccc2)cc1` [Compound 126], for the setting “48 h”, the activation at 0.307 µM came out at 5.18%, the activation at 1.53 µM is 19%, the activation at 7.66 µM was 58.1% and the activation at 38.3 µM stood at 102%. Besides, the Emax under setting [1] amounted to 125%. Besides, under “read-out: Max Response [%]”, the Emax amounted to 102%.

For the molecule `CCNC(=O)COC(=O)c1cc(-c2ccco2)nc2ccccc12` [Compound 175], under “48 h”, the activation at 0.307 µM is -59.9%, the activation at 1.53 µM was -45.5%, the activation at 7.66 µM is 5.39% and the activation at 38.3 µM was 48.1%. The Emax under setting [1] is 54%. Further, the Emax (read-out: Max Response [%]) is 48.1%.

In the case of `COc1ccc(Nc2ncnc3ccc(Br)cc23)cc1OC` [Compound 75], the EC50 is 3.98 µM. For the same molecule, under “48 h”, the activation at 0.307 µM is 28.1%, the activation at 1.53 µM was determined as 40%, the activation at 7.66 µM was 79.7% and the activation at 38.3 µM was 95.9%. Further, the Emax under setting [1] came to 98.4%. Further, the Emax (read-out: Max Response [%]) was 95.9%.

For the molecule `O=C(NC(=S)NCCC1=CCCCC1)c1ccc(Br)o1` [Compound 205], under “48 h”, the activation at 0.307 µM was -39.4%, the activation at 1.53 µM was -31.7%, the activation at 7.66 µM was determined as 12.1% and the activation at 38.3 µM was 50.2%. Moreover, the Emax under setting [1] is 57.8%. Where the note is “read-out: Max Response [%]”, the Emax was 50.2%.

For `COc1ccc(N2CCCC2)c(NC(=O)c2ccc([N+](=O)[O-])o2)c1` [Compound 46], the EC50 is 7.94 µM. Besides, where the note is “48 h”, the activation at 0.307 µM was -29.7%, the activation at 1.53 µM was 4.44%, the activation at 7.66 µM was 77.6% and the activation at 38.3 µM was found to be 156%. Moreover, under setting [1], the Emax worked out at 196%.

`CN(C)c1ccnc2sc(C(N)=O)c(N)c12` [Compound 87]: for the setting “48 h”, the activation at 0.307 µM turned out to be 20.9%, the activation at 1.53 µM amounted to 26.5%, the activation at 7.66 µM turned out to be 69.1% and the activation at 38.3 µM was found to be 86.5%. Under setting [1], the Emax was determined as 87.8%. For the same molecule, for the setting “read-out: Max Response [%]”, the Emax is 86.5%.

On to `COc1cc(Cl)cc(CN2CCC(CCC(=O)NC3CC3)CC2)c1OC` [Compound 167], for which, for the setting “48 h”, the activation at 0.307 µM is -38.2%, the activation at 1.53 µM was -33.5%, the activation at 7.66 µM was determined as 9.56% and the activation at 38.3 µM is 44%. Also, the Emax under setting [1] amounted to 48.6%. The Emax (read-out: Max Response [%]) was found to be 44%.

As for `O=C(CN1CCOCC1)NCc1cc([N+](=O)[O-])ccc1O` [Compound 166], where the note is “48 h”, the activation at 0.307 µM worked out at 10.3%, the activation at 1.53 µM was found to be 15.6%, the activation at 7.66 µM amounted to 41.7% and the activation at 38.3 µM came to 87.7%. The Emax under setting [1] was 104%. Moreover, the Emax (read-out: Max Response [%]) is 87.7%.

`Cc1ccc(NC(=O)C2CCCCC2C(=O)O)cc1C` (centres unmarked) [Compound 114]: the EC50 is 11.2 µM. Also, for the setting “48 h”, the activation at 0.307 µM was -6.72%, the activation at 1.53 µM is -1.25%, the activation at 7.66 µM amounted to 17.2% and the activation at 38.3 µM was 135%. In addition, under setting [1], the Emax came to 135%. Also, where the note is “read-out: Max Response [%]”, the Emax amounted to 135%.

As for `Cc1nc2c([nH]1)OC(N)=C(C#N)C21CCN(Cc2ccccc2)CC1` [Compound 132], the “Curve Description” value is given as “Partial”. Further, where the note is “48 h”, the activation at 0.307 µM is 11.1%, the activation at 1.53 µM is 13.8%, the activation at 7.66 µM worked out at 23% and the activation at 38.3 µM came out at 133%. Further, the Emax under setting [1] was found to be 133%. Moreover, the Emax (read-out: Max Response [%]) was 133%.

For `NS(=O)(=O)c1ccc(NC(=O)c2ccc(CNS(=O)(=O)c3cc(C(F)(F)F)ccc3Cl)cc2)cc1` [Compound 207], the EC50 is 10 µM. Where the note is “48 h”, the activation at 0.307 µM was found to be 0.545%, the activation at 1.53 µM came out at 0%, the activation at 7.66 µM came to 25.5% and the activation at 38.3 µM was 73.3%. Further, the Emax under setting [1] amounted to 75.5%. For the same molecule, under “read-out: Max Response [%]”, the Emax turned out to be 73.3%.

Regarding `CN(CC(=O)Nc1cccc(F)c1)C(=O)c1ccc(-c2ccc(Cl)cc2)o1` [Compound 90], the EC50 was 11.2 µM. Also, where the note is “48 h”, the activation at 0.307 µM was 2.83%, the activation at 1.53 µM turned out to be 8.12%, the activation at 7.66 µM was 27.2% and the activation at 38.3 µM came out at 146%. Under setting [1], the Emax was 146%. Besides, the Emax (read-out: Max Response [%]) was found to be 146%.

As to `CCOc1ccccc1NC(=O)c1cccc2c1C(=O)N(C1CCCCC1)C2` [Compound 15], the EC50 is 3.16 µM. For the setting “48 h”, the activation at 0.307 µM is -13.7%, the activation at 1.53 µM is 4.71%, the activation at 7.66 µM turned out to be 58% and the activation at 38.3 µM is 73.6%. Also, under setting [1], the Emax amounted to 75.3%.

As for `COc1ccc(CCNC(=O)c2cc(-c3cc(C)ccc3O)n[nH]2)cc1OC` [Compound 217], the EC50 is 10 µM. For the setting “48 h”, the activation at 0.307 µM worked out at 10.4%, the activation at 1.53 µM worked out at 9.29%, the activation at 7.66 µM was determined as 27.5% and the activation at 38.3 µM stood at 65.2%. Under setting [1], the Emax worked out at 66.2%. Further, the Emax (read-out: Max Response [%]) is 65.2%.

`CCCCC(C(=O)NC1CCCC1)N(C(=O)c1snc(C(N)=O)c1N)c1ccc(C)cc1` (centres unmarked) [Compound 151]: the EC50 is 10 µM. In addition, for the setting “48 h”, the activation at 0.307 µM was -26.6%, the activation at 1.53 µM was -26%, the activation at 7.66 µM came out at 2.04% and the activation at 38.3 µM was 63.7%. The Emax under setting [1] worked out at 65.1%. Also, the Emax (read-out: Max Response [%]) was found to be 63.7%.
